According to US20250281610A1, “P2RY2 ACTIVITY MODULATORS” (Deutsches Krebsforschungszentrum Stiftung des öffentlichen …, priority 2022, published 2025):

Tests used:
[1] = tested on: CD33-specific CAR transduced T cells co-cultured with THP-1 cells; assay: T cell cytokine production in co-culture of CD33-specific CAR-T cells with THP-1 cells; type: cell-based, human; details: 5 μM AR-C
Method: FIG. 8. Effects of P2RY2 antagonist on T cells and cancer cells in T cell-cancer cell co-cultures. T cells transduced with CD33-specific CAR (CAR-T) were co-cultured with genetically edited THP-1 cells in the absence or presence of 5 μM AR-C 118925XX (AR-C) for 6-24 hours. Control cells: THP-1 cells transduced with non-targeting sgRNA and Cas9 (gNT); P2RY2 deficient cells: THP-1 cells transduced with P2RY2-targeting sgRNA and Cas9 (gP2RY2-3, gP2RY2-4); B7-H3 (CD276) deficient cells: THP-1 cells transduced with B7-H3-targeting sgRNA and Cas9 (gCD276-1); P2RY2 and B7-H3 double deficient cells: THP-1 cells transduced with P2RY2-targeting sgRNA, B7-H3-targeting sgRNA, and Cas9 (gCD276-1 gP2RY2-3 DKO, gCD276-1 gP2RY2-4 DKO); P2RY2 overexpression cells: THP-1 cells transduced with the open reading frame of P2RY2 (P2RY2-OE); B7-H3 overexpression cells: THP-1 cells transduced with the open reading frame of CD276 (CD276-OE). Transduced cancer cells were selected by antibiotics according to antibiotic resistance genes carried by the lentiviral constructs. Flow cytometry analysis of expression of production of IFNγ and TNFα within the CD3+CD8+ cell population is shown (values indicate the percentages of positive cells). For the viability of THP-1 cells, normalized cell counts of viable cells after co-culture with CD33-specific CAR-T cells is shown. The end-point cell counts were normalized to the number of THP-1 cells in cultures without T cells.
MART-1 specific T cells were generated as described (Mezzadra et al., Nature 549, 106-110 (2017); Jorritsma et al., Blood 110 (10): 3564-3572. (2007)). […]
(§1) The open reading frames of transcripts of P2RY2(ENST00000393597.7) or CD276(ENST00000318443.10), were ordered as a codon optimized gBlock Gene Fragment (Integrated DNA Technologies or Twist Bioscience) and cloned into a lentiviral vector containing a blasticidin selection cassette. […]
(§2) MART1-specific CD8+ T cells and MART1 epitope-expressing cancer cells were mixed at a ratio of 1:16 to 1:4. […] T cell activation was assessed by surface staining with anti-CD137-BV421 (4-1BB, Biolegend), anti-CD69-APC/Fire™ 750 (FN50, Biolegend), anti-CD25-AF700 (BC96, Biolegend) antibodies and intracellular staining with anti-IL-2-PE/Cy7 (MQ1-17H12, Biolegend), anti-IFN-7-BV421 (4S.B3, Biolegend), anti-TNF-α-BV785 (MAb11, Biolegend) antibodies, followed by flow cytometry analysis. […] The viability of cancer cells that grow in suspension including THP-1 cells was assessed by flow cytometry-based absolute cell counting using AccuCount beads (Spherotech). For adherent cancer cells including BxPC3 and MCF7, the cell viability was quantified using CellTiter-Blue Cell Viability Assay (Promega).

THP-1 cells = assay: Viability of THP-1 cells in co-culture with CD33-specific CAR-T cells (flow cytometry-based cell counting); design: species or system human; details: 5 μM AR-C
Method: FIG. 8. Effects of P2RY2 antagonist on T cells and cancer cells in T cell-cancer cell co-cultures. T cells transduced with CD33-specific CAR (CAR-T) were co-cultured with genetically edited THP-1 cells in the absence or presence of 5 μM AR-C 118925XX (AR-C) for 6-24 hours. Control cells: THP-1 cells transduced with non-targeting sgRNA and Cas9 (gNT); P2RY2 deficient cells: THP-1 cells transduced with P2RY2-targeting sgRNA and Cas9 (gP2RY2-3, gP2RY2-4); B7-H3 (CD276) deficient cells: THP-1 cells transduced with B7-H3-targeting sgRNA and Cas9 (gCD276-1); P2RY2 and B7-H3 double deficient cells: THP-1 cells transduced with P2RY2-targeting sgRNA, B7-H3-targeting sgRNA, and Cas9 (gCD276-1 gP2RY2-3 DKO, gCD276-1 gP2RY2-4 DKO); P2RY2 overexpression cells: THP-1 cells transduced with the open reading frame of P2RY2 (P2RY2-OE); B7-H3 overexpression cells: THP-1 cells transduced with the open reading frame of CD276 (CD276-OE). […]
FIG. 9. […] Control cells THP-1 cells transduced with non-targeting sgRNA and Cas9 (Ctrl.); P2RY2 overexpression cells: THP-1 cells transduced with the open reading frame of P2RY2 (P2RY2-OE). […]
as §1
as §2, with “For adherent cancer cells including BxPC3 and MCF7, the cell viability was quantified using CellTiter-Blue Cell Viability Assay (Promega).” left out

[2] = 6-24 hours, P2RY2 proficient THP-1 cells, CD3+CD8+ population (FIG. 8)
[3] = P2RY2 deficient THP-1 cells (FIG. 8)

Structure (SMILES): Cc1ccc2c(c1)C=Cc1cc(C)ccc1C2c1cn(Cc2ccc(C(=O)Nc3nn[nH]n3)o2)c(=O)[nH]c1=S [AR-C 118925XX]
- production of IFNγ by T cells [1, 2]: increased
- production of TNFα by T cells [1, 2]: increased
- production of IFNγ in T cell upon P2RY2 deletion [1, 3]: does not influence
- production of TNFα in T cell upon P2RY2 deletion [1, 3]: does not influence
- viability of P2RY2 proficient THP-1 cells (THP-1 cells; 6-24 hours, co-culture with CD33-specific CAR-T cells (FIG. 8)): reduced
- viability of tumor cells upon P2RY2 deletion (THP-1 cells; P2RY2 deficient THP-1 cells, CAR-T cell-THP-1 cell coculture (FIG. 8)): does not influence
